Measured values from patent US7129351B2, “Pyrimido compounds having antiproliferative activity” (Hoffmann-La Roche Inc., priority 2002, dated 2006).
Like-named read-outs stand apart in the source and are kept apart here.

Columns and labels:
Src (p60^c-src) = target: T1, Src (p60^c-src) (Homo sapiens, UniProt P12931); experiment: SRC-Inhibitor-Assay (homogenous time-resolved fluorescence kinase assay); format: biochemical
T1 construct: purchased Upstate (UBI)
Method: The activity of the compounds according to this invention as inhibitors for the src-family tyrosine kinases was shown by using the following assay.
SRC-Inhibitor-Assay Parameters:
whereby both peptides were synthesized by an optimized solid phase peptide synthesis protocol (Merrifield (1962) Fed. Proc. Fed. Amer. Soc Exp. Biol. 21, 412) on an Zinsser SMP350 peptide synthesizer. Shortly, the peptide was assembled on 160 mg (22.8 μmol scale) of a Rink-Linker modified polystyrene solid phase by repeatedly conjugating a twenty fold excess of aminoacids each protected by temporary piperidine labile Fmoc- and permanent acid labile tert-Bu-, BOC- and O-tert-Bu-groups depending on the side chain function. The substrate sequence AEEEIYGEFEAKKKK was N-terminal additionally mounted with the spacer amino acids Aminocaprylic acid and Glycin. After cleavage of the N-terminal temporary protecting group the still attached and protected peptide was labeled with a 1.5 fold amount of LightCycler-Red 640-N-hydroxy succinimide ester (purchased from Roche Diagnostics GmbH) and triethylamine. After 3 hrs. the resin was washed with dimethylformamide and isopropanol until the eluates of the blue resin got colourless. […] The substrate was finally isolated by a preparative reverse phase HPLC purification. The purification yielded 12.2 mg RP-HPLC single peak pure blue material (lyophilisate). The identity was proven by MALDI mass spectroscopy [2720.0]. • Enzymes: Upstate Lck (p56^lck, active), Upstate Src (p60^c-src, partially purified) were purchased from UBI. • Homogenous, time-resolved Fluorescence Assay: Reader: Perkin Elmer, Wallac Viktor 1420-040 multilabel counter; Liquid handling system: Beckman Coulter, Biomek 2000. • ATP, Tween 20, HEPES were purchased from Roche Molecular Biochemicals, MgCl2 and MnCl2 were purchased from Merck Eurolab, TCEP was purchased from Pierce, 384 Well low volume fluorescence plates was purchased from Falcon. Assay Description:
At first the enzyme is pre-incubated for 15 min. at 15° C. in aqueous solution with corresponding amounts of inhibitors according to this invention. Then the phosphorylation reaction is started by adding a reaction mixture, containing ATP, Peptide and PT66, and subsequent shaking. The proceeding of this reaction is immediately monitored using time resolved fluorescence spectroscopy in a suitable well plate reader.
The IC50-values can be obtained from the reaction rates by using a non-linear curve fit (Excelfit).

[1] = ATP 5 μM, enzyme 2.5 U/mL, pre-incubated 15 min at 15° C., read-out: IC50 (μM) - Enzyme Inhibition Assay, Src

T1 sequence (P12931 whole entry): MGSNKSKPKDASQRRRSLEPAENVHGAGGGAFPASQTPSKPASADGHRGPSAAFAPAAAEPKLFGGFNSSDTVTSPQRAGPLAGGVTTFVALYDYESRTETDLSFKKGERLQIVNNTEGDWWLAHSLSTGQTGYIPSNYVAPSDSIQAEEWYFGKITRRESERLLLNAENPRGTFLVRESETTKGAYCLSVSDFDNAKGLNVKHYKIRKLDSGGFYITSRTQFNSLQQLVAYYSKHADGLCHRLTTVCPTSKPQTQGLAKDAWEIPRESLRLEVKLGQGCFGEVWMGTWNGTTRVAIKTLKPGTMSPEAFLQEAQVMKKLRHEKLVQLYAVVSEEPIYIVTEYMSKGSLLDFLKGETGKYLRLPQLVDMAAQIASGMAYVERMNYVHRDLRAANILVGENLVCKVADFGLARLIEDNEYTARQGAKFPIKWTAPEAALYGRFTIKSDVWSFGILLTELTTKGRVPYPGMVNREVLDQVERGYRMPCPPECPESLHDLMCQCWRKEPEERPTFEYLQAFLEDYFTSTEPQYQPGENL

Q: What does the source list for `COc1ccc(N2C(=O)N(c3cccc(C(N)=O)c3)c3nc(Nc4cccc(CCN5CCN(C)CC5)c4)ncc3C2C)cc1` (racemic) [Example 10, (±)-3-(3-(4-methoxy-phenyl)-4-methyl-7-{3-[2-(4-methyl-piperazin-1-yl)-ethyl]-phenylamino}-2-oxo-3,4-dihydro-2H-pyrimido[4,5-d]pyrimidin-1-yl)-benzamide]?
A: IC50 (Src (p60^c-src); [1]): < 1 µM; melting point: 243 to 251 °C

Q: Which results are given for `COc1ccc(N2C(=O)N(c3cccc(C#N)c3)c3nc(Nc4cccc(CCO)c4)ncc3C2C)cc1` (racemic) [Example 4, (±)-3-[7-[3-(2-hydroxy-ethyl)-phenylamino]-3-(4-methoxy-phenyl)-4-methyl-2-oxo-3,4-dihydro-2H-pyrimido[4,5-d]pyrimidin-1-yl]-benzonitrile]?
A: IC50 (Src (p60^c-src); [1]): < 1 µM; melting point: 195 to 200 °C

Q: Which results are given for `COc1ccc(N2C(=O)N(c3cccc(C(N)=O)c3)c3nc(Nc4cccc(CCN(C)C)c4)ncc3C2C)cc1` (racemic) [Example 9, (±)-3-[7-[3-(2-dimethylamino-ethyl)-phenylamino]-3-(4-methoxy-phenyl)-4-methyl-2-oxo-3,4-dihydro-2H-pyrimido[4,5-d]pyrimidin-1-yl]-benzamide]?
A: IC50 (Src (p60^c-src); [1]): < 1 µM; melting point: 215 to 230 °C

Q: With `COc1ccc(N2C(=O)N(c3cccc(C#N)c3)c3nc(Nc4cccc(CCN(C)C)c4)ncc3C2C)cc1` (racemic) [Example 6, (±)-3-[7-[3-(2-dimethylamino-ethyl)-phenylamino]-3-(4-methoxy-phenyl)-4-methyl-2-oxo-3,4-dihydro-2H-pyrimido[4,5-d]pyrimidin-1-yl]-benzonitrile] as the molecule, how does the IC50 (Src (p60^c-src); [1]) read?
A: The IC50 was under 1 µM.

Q: What about the melting point of the same molecule?
A: The melting point was 120 to 135 °C.

Q: With `CCN(CC)CCc1cccc(Nc2ncc3c(n2)N(c2cccc(C(N)=O)c2)C(=O)N(c2ccc(OC)cc2)C3C)c1` (racemic) [Example 8, (±)-3-[7-[3-(2-diethylamino-ethyl)-phenylamino]-3-(4-methoxy-phenyl)-4-methyl-2-oxo-3,4-dihydro-2H-pyrimido[4,5-d]pyrimidin-1-yl]-benzamide] as the molecule, how does the IC50 (Src (p60^c-src); [1]) read?
A: Its IC50 is under 1 µM.

Q: What about the IC50 (Src (p60^c-src); printed at the end of the Example 8 characterisation data, kinase not named at that place, read-out: IC50) of the same molecule?
A: The IC50 was 0.0045 µM.

Q: And the melting point?
A: Its melting point is 170 to 175 °C.

Q: What does the source list for `CCN(CC)CCc1cccc(Nc2ncc3c(n2)N(c2cccc(C#N)c2)C(=O)N(c2ccc(OC)cc2)C3C)c1` (racemic) [Example 5b, (±)-3-[7-[3-(2-diethylamino-ethyl)-phenylamino]-3-(4-methoxy-phenyl)-4-methyl-2-oxo-3,4-dihydro-2H-pyrimido[4,5-d]pyrimidin-1-yl]-benzonitrile]?
A: IC50 (Src (p60^c-src); [1]): < 1 µM; melting point: 128 to 145 °C

Q: Which IC50 (Src (p60^c-src); [1]) does the source give for `COc1ccc(N2C(=O)N(c3cccc(C#N)c3)c3nc(Nc4cccc(CCN5CCN(C)CC5)c4)ncc3C2C)cc1` (racemic) [Example 7, (±)-3-(3-(4-methoxy-phenyl)-4-methyl-7-{3-[2-(4-methyl-piperazin-1-yl)-ethyl]-phenylamino}-2-oxo-3,4-dihydro-2H-pyrimido[4,5-d]pyrimidin-1-yl)-benzonitrile] here?
A: Its IC50 is under 1 µM.

Q: What about the melting point of the same molecule?
A: Its melting point is 134 to 155 °C.
